Assay results reported in PMC6128917, “Implications for the impairment of the rapid channel closing of Proteomonas sulcata anion channelrhodopsin 1 at high Cl^− concentrations” (Scientific Reports, 2018).

Target: T1, PsuACR1 (PsACR1)
T1 construct: 291 residues plus C-terminal His8 kept (299 residues in total)
Assay: UV-visible absorption titration, λmax red-shift fitted with Hill equation (n = […] fixed)
Type: binding, Proteomonas sulcata
Conditions: 10 mM MOPS pH 7.0, 25 °C; ionic strength kept at 1,000 mM with Na2SO4; initial (unphotolysed) state

Cl [Cl^−]
Kd: 5.5 ± 1.6 mM
